From PMC12313019, “Fibrotic lung ECM upregulates SDC4/integrin-αvβ1 interaction and the interfering peptide SDC4_87-131 and its derivative peptides alleviate pulmonary fibrosis” (Regenerative Biomaterials, 2025)
“Also recorded” adds a separate entry of the source.

Legend:
cell migration = conditions: ref [39]; cited from earlier work
Source text: SDC4_87-131 is a synthetic peptide of the N87-M131 segment of the extracellular domain of SDC4 (Supplementary Figure S9A). […] Comparing the effects of ... || Syndecans and integrins collaboratively regulate FA formation and cell adhesion. PKCα is known to modulate integrin-mediated FAK phosphorylation and FA assembly. Inhibition of PKCα not only blocks NF-κB activation but also reduces FAK phosphorylation. Conversely, FAK activation can induce NF-κB activity, highlighting a bidirectional crosstalk between the SDC4/PKCα/NF-κB and integrin/FAK pathways.

[1] = tested on: integrin-αvβ1, FAK/AKT, Smad2/3 and PKCα/NF-κB in BLM lung tissue; assay: BLM-induced PF in mice: Western blot of lung tissue; type: in vivo, mouse; conditions: n=3
Method: (§1) After the mice were anesthetized (1% sodium pentobarbital 50 mg/kg was injected intraperitoneally), 150 μL of bleomycin (BLM, 5 mg/mL, BIO-000001) was inhaled into the lungs of the mice by tracheal inhalation instillation. One day later, the mice were randomly divided into model and drug treatment groups, and the mice in the control group were only subjected to saline inhalation.
20 mg of lung tissue was extracted with RIPA lysis buffer (Roche International Ltd., Bermuda, USA), and the protein concentration was determined using a BCA protein detection kit (Roche). Protein samples were separated by 10% sodium dodecyl sulfate polyacrylamide gel (SDS-PAGE) electrophoresis and transferred to a PVDF membrane. After blocking, the PVDF membrane was incubated with primary antibodies for α-SMA, Integrin-αV, SDC4, Integrin-β1, p-Smad3, FAK, and p-FAK (CST, #19245, #4711, #12236S, #34971, #9520S, #3285S, and #3284S) at 4°C overnight, followed by incubation with secondary antibodies (CST, #7074P2), development with ECL reagent (SAB), and acquisition of images with a chemiluminescence imaging system (ChemiScope 5600).

pan-integrins = assay: FN-coating cell adhesion assay (pan-integrins activation); type: cell-based, mouse; conditions: 100 nM, n=5
Method: 10 μg/mL Fibronectin (Merck, #10838039001) was dissolved in serum-free DMEM medium and dropped into a 96-well plate, 50 μL per well. The plate was incubated at 4 °C overnight. After blocking with 3% bovine serum albumin at room temperature for 30 min, 4×10^4 cells were inoculated into each well. After incubation for 30 min, the cells were washed, fixed, and stained with crystal violet (5 mg/mL) for 30 min. Then after the crystal violet was dissolved, it was detected using an ELISA reader at 595 nm.

fibroblast = assay: CCK-8 fibroblast viability/toxicity; type: cell-based, mouse; conditions: CCK-8, 48 h, 10–1000 nM
Method: (§2) Decellularized lung ECM (dECM) was prepared as described in previous study. 2 × 10^5 cells/mL NIH3T3 cells (mouse […], purchased from the Stem Cell Bank of the Chinese Academy of Sciences, Shanghai, China) were seeded on the dECM slices attached to the bottom of the culture dish and cultured in DMEM medium containing 0.5% fetal bovine serum (Gibco, Waltham, MA, USA) at 37°C and 5% CO2.
(A) Schematic diagram of SDC487-131; (B) Effect of SDC487-131 and GRGDNP on fibroblast proliferation at 48 h was determined by CCK-8 method (n=3); (C) Effect of different concentration of SDC487-131 on fibroblast activation induced by d-PF for 48 h (n=5). Note: **p < 0.01 vs. PBS in d-Nor group; #p < 0.05 vs. PBS in d-PF group. d-Nor: dECM-Nor; d-PF: dECM-PF.
Figure S14. The viability of fibroblast after treated with peptides for 48 h was detected by CCK-8 assay.

BLM lung injury, mice = assay: BLM lung injury, subacute stage, HE staining; type: in vivo, mouse; conditions: 300 μg/kg, i.h., qd from 24 h after BLM, to day 15
Method: as §1
(A) Flow chart of animal experiments. SDC487-131 (300 μg/kg, i.h., qd) was administered starting 24 h after BLM modeling, and the experiment ended on the 15th day; (B) The pathological changes at the subacute stage of BLM lung injury were observed by HE staining (scale bar = 1000 μm, 50μm). […] To achieve better results, we used intratracheal instillation of SDC487-131 (1mg/kg, q3d).

integrin-β1 = assay: BLM-induced PF in mice: flow cytometry of integrin-β1 activation in lung tissue; type: in vivo, mouse
Method: as §1
The single cell suspension of mouse lung tissue was obtained by grinding. After the remaining red blood cells were lysed with ACK Lysis Buffer (TBD, NH4CL2009), 1×10^6 cells/100 μL of cells were added with Fixable Viability Stain 780 (BD, #565388). After incubation at room temperature in the dark for 10-15 min, the suspension was washed twice with PBS containing 1%-2% FBS. The FCR antibody TruStain FcX™ PLUS (BD, #156603) was added to the cell suspension at a ratio of 0.25 μL:100 μL and blocked on ice for 10 min. Then, the antibody was incubated at an appropriate concentration and time according to the manufacturer's instructions. Antibodies include CD45 (Biolegend, #157619), CD140a (Thermo Fisher, #25-1401-82), SDC-4 (Sino Biological, #50726-R112-P), SP-C (Bioss, #bs-10067R-FITC) and Integrin-β1 (9Eg7, BD, 553715), and AF647 anti-Rat (CST, #4418S) was used as the secondary antibody. After incubation, cells were washed and resuspended, and detected using LSRFortessaX-20 (BD).

SDC4/integrin-αv = assay: Duolink-PLA, SDC4/integrin-αv extracellular interaction in fibroblast; type: cell-based, mouse; conditions: SDC4_87-131 100 nM; with Anti-SDC4(93-121), n=5
Method: as §2
Cells or tissue slices were attached to slides, fixed and permeabilized and blocked with Duolink^TM (Merck, MO, USA) blocking buffer. Antibodies against the extracellular domain of SDC4 (5G9, mouse IgG, SCBT #sc-12766), integrin-αv (rabbit IgG, CST #4711) and integrin-β1 (rabbit IgG, CST #34971) were diluted and added to the samples and incubated overnight at 4°C. After washing, PLUS and MINUS (proximity ligation assay, PLA) probes were added to the samples and incubated at 37°C for 1 h. After washing, the samples were sequentially incubated with PLUS and MINUS (PLA) probes, ligation buffer and amplification buffer containing polymerase. Finally, the samples were mounted with in situ mounting medium containing DAPI. Images were acquired using a Leica SP5 confocal microscope (Leica Biosystems, Germany) and quantitative analysis was performed using ImageJ software.

Ac-NHIPERAGSGSQVPTEPKKLEENEVIPKRISPVEESEDVSNKVSM-NH2 [SDC4_87-131]
cell adhesion and migration (cell migration): reduces cell adhesion and migration | cell migration (cell migration): can inhibit cell migration comparably to the exogenous full-length SDC4 | expression level of integrin-αv ([1]; 1 mg/kg ITD q3d): significantly reduced the expression level of integrin-αv | phosphorylation level of PKCα and nuclear content of NF-κB (p65) ([1]; SDC4_87-131 1 mg/kg, C8 10 mg/kg, Anti-SDC4(93-121) 8 mg/kg): could downregulate | FAK/AKT phosphorylation [1]: inhibit FAK/AKT phosphorylation activation in both in vitro and in vivo experiments | p-Smad2/3 effect vs C8 and Anti-SDC4 [1]: not significantly different from C8 and Anti-SDC4 | p-Smad2/3 protein levels [1]: reduced p-Smad2/3 protein levels | pan-integrins activation (pan-integrins): could inhibit pan-integrins activation | toxicity to fibroblast (fibroblast): no significant toxicity to fibroblast | BLM lung injury, subacute stage (BLM lung injury, mice): can alleviate BLM lung injury in the subacute stage; also recorded: effective | integrin-β1 activation in nonimmune cells (CD45^-) (integrin-β1): abolished | integrin-β1 activation effect vs C8 and Anti-SDC4(93-121) (integrin-β1; CD45^- cells): equivalent to the effects of C8 and Anti-SDC4(93-121) | integrin-αv/SDC4 interaction induced by dECM-PF (SDC4/integrin-αv): significantly reduce
